Source: ChEMBL document CHEMBL1926664, “Synthesis and antiproliferative evaluation of 6-aryl-11-iminoindeno[1,2-c]quinoline derivatives” (2011)
Activity calls are given as the source filed them. No cut-off for these calls is given here.

Key:
[1] = Cell cycle arrest in human Hep3B cells assessed as accumulation at sub-G1 phase at 1 uM after 12 hrs using propidium iodide staining by flow cytometry (reference value: 2.1%); format: functional, cell-based; conditions: Hep 3B2
HepG2 [2] = assay: Cell cycle arrest in human HepG2 cells assessed as accumulation at G2/M phase at 10 uM after 12 hrs using propidium iodide staining by flow cytometry (reference value: 18.7 %); format: functional
HepG2 [3] = assay: Induction of apoptosis in human HepG2 cells assessed as increased expression of Bax protein at 1 to 10 uM after 12 hrs by immunoblot; format: functional, cell-based
HepG2 [4] = assay: Induction of apoptosis in human HepG2 cells assessed as cell shrinking at 5 uM after 12 hrs by light microscopic method; format: functional, cell-based
[5] = Cell cycle arrest in human Hep3B cells assessed as accumulation at sub-G1 phase at 5 uM after 12 hrs using propidium iodide staining by flow cytometry (reference value: 2.1%); format: functional, cell-based; conditions: Hep 3B2
[6] = Cell cycle arrest in human Hep3B cells assessed as accumulation at G2/M phase at 10 uM after 12 hrs using propidium iodide staining by flow cytometry (reference value: 16.2 %); format: functional, cell-based; conditions: Hep 3B2
HepG2 [7] = assay: Cell cycle arrest in human HepG2 cells assessed as accumulation at sub-G1 phase at 1 uM after 12 hrs using propidium iodide staining by flow cytometry (reference value: 3.6%); format: functional
[8] = Growth inhibition of human Hep3B cells after 72 hrs by XTT assay; format: functional, Hep 3B2
A549 = assay: Growth inhibition of human A549 cells after 72 hrs by XTT assay; format: functional; conditions: A549, 72 h
Hep 3B2 [9] = assay: Growth inhibition of human Hep3B cells assessed as assessed as suppression of cell viability at 5 uM after 12 hrs by XTT assay; format: functional, cell-based
[10] = Growth inhibition of human H1299 cells after 72 hrs by XTT assay; format: functional; conditions: NCI-H1299, 72 h
HepG2 [11] = assay: Cell cycle arrest in human HepG2 cells assessed as accumulation at G2/M phase at 1 uM after 12 hrs using propidium iodide staining by flow cytometry (reference value: 18.7 %); format: functional
HepG2 [12] = assay: Induction of apoptosis in human HepG2 cells assessed as Bcl-2 level at 1 to 10 uM after 12 hrs by chemiluminescence blotting method; format: functional, cell-based
HepG2 [13] = assay: Growth inhibition of human HepG2 cells after 72 hrs by XTT assay; format: functional; conditions: HepG2, 72 h
HepG2 [14] = assay: Cell cycle arrest in human HepG2 cells assessed as accumulation at S phase at 1 uM after 12 hrs using propidium iodide staining by flow cytometry (reference value: 13.8%); format: functional
Hep 3B2 [15] = assay: Growth inhibition of human Hep3B cells at 0.1 to 5 uM by XTT assay; format: functional, cell-based; conditions: TDE = time-dependent effect
HepG2 [16] = assay: Cell cycle arrest in human HepG2 cells assessed as accumulation at G2/M phase at 5 uM after 12 hrs using propidium iodide staining by flow cytometry (reference value: 18.7 %); format: functional
HepG2 [17] = assay: Growth inhibition of human HepG2 cells at 0.1 to 5 uM by XTT assay; format: functional, cell-based; conditions: TDE = time-dependent effect
HepG2 [18] = assay: Induction of apoptosis in human HepG2 cells assessed as increase in expression of p53 protein at 1 to 10 uM after 12 hrs by chemiluminescence blotting method; format: functional, cell-based
MDA-MB-231 = assay: Growth inhibition of human MDA-MB-231 cells after 72 hrs by XTT assay; format: functional; conditions: MDA-MB-231, 72 h
[19] = Cell cycle arrest in human Hep3B cells assessed as accumulation at sub-G1 phase at 10 uM after 12 hrs using propidium iodide staining by flow cytometry (reference value: 2.1%); format: functional, cell-based; conditions: Hep 3B2
[20] = Cell cycle arrest in human Hep3B cells assessed as accumulation at G1 phase at 1 uM after 12 hrs using propidium iodide staining by flow cytometry (reference value: 71.6%); format: functional, cell-based; conditions: Hep 3B2
[21] = Cell cycle arrest in human Hep3B cells assessed as accumulation at S phase at 1 uM after 12 hrs using propidium iodide staining by flow cytometry (reference value: 12.2%); format: functional, cell-based; conditions: Hep 3B2
HepG2 [22] = assay: Induction of apoptosis in human HepG2 cells assessed as increase in caspase-8 level at 1 to 10 uM after 12 hrs by chemiluminescence blotting method; format: functional, cell-based
HepG2 [23] = assay: Growth inhibition of human HepG2 cells assessed as suppression of cell viability at 5 uM after 12 hrs by XTT assay; format: functional, cell-based
HepG2 [24] = assay: Cell cycle arrest in human HepG2 cells assessed as accumulation at S phase at 10 uM after 12 hrs using propidium iodide staining by flow cytometry (reference value: 13.8%); format: functional
[25] = Cell cycle arrest in human Hep3B cells assessed as accumulation at S phase at 10 uM after 12 hrs using propidium iodide staining by flow cytometry (reference value: 12.2%); format: functional, cell-based; conditions: Hep 3B2
MCF7 = assay: Growth inhibition of human MCF7 cells after 72 hrs by XTT assay; format: functional; conditions: MCF7, 72 h
HepG2 [26] = assay: Cell cycle arrest in human HepG2 cells assessed as accumulation at sub-G1 phase at 10 uM after 12 hrs using propidium iodide staining by flow cytometry (reference value: 3.6%); format: functional
Hep 3B2 [27] = assay: Induction of apoptosis in human Hep3B cells assessed as cell shrinking at 5 uM after 12 hrs by light microscopic method; format: functional, cell-based
HepG2 [28] = assay: Cell cycle arrest in human HepG2 cells assessed as accumulation at G1 phase at 10 uM after 12 hrs using propidium iodide staining by flow cytometry (reference value: 67.5%); format: functional
Hep 3B2 [29] = assay: Growth inhibition of human Hep3B cells after 12 to 72 hrs by XTT assay; format: functional, cell-based
[30] = Cell cycle arrest in human Hep3B cells assessed as accumulation at G1 phase at 10 uM after 12 hrs using propidium iodide staining by flow cytometry (reference value: 71.6%); format: functional, cell-based; conditions: Hep 3B2
[31] = Cell cycle arrest in human Hep3B cells assessed as accumulation at G2/M phase at 1 uM after 12 hrs using propidium iodide staining by flow cytometry (reference value: 16.2 %); format: functional, cell-based; conditions: Hep 3B2
HepG2 [32] = assay: Growth inhibition of human HepG2 cells after 12 to 72 hrs by XTT assay; format: functional, cell-based
[33] = Cell cycle arrest in human Hep3B cells assessed as accumulation at S phase at 5 uM after 12 hrs using propidium iodide staining by flow cytometry (reference value: 12.2%); format: functional, cell-based; conditions: Hep 3B2
HepG2 [34] = assay: Cell cycle arrest in human HepG2 cells assessed as accumulation at sub-G1 phase at 5 uM after 12 hrs using propidium iodide staining by flow cytometry (reference value: 3.6%); format: functional
HepG2 [35] = assay: Cell cycle arrest in human HepG2 cells assessed as accumulation at G1 phase at 5 uM after 12 hrs using propidium iodide staining by flow cytometry (reference value: 67.5%); format: functional
[36] = Cell cycle arrest in human Hep3B cells assessed as accumulation at G1 phase at 5 uM after 12 hrs using propidium iodide staining by flow cytometry (reference value: 71.6%); format: functional, cell-based; conditions: Hep 3B2
HepG2 [37] = assay: Cell cycle arrest in human HepG2 cells assessed as accumulation at G1 phase at 1 uM after 12 hrs using propidium iodide staining by flow cytometry (reference value: 67.5%); format: functional
HepG2 [38] = assay: Cell cycle arrest in human HepG2 cells assessed as accumulation at S phase at 5 uM after 12 hrs using propidium iodide staining by flow cytometry (reference value: 13.8%); format: functional
[39] = Cell cycle arrest in human Hep3B cells assessed as accumulation at G2/M phase at 5 uM after 12 hrs using propidium iodide staining by flow cytometry (reference value: 16.2 %); format: functional, cell-based; conditions: Hep 3B2

CN(C)CCCO/N=C1\c2cc(O)ccc2-c2c(-c3ccc(OCCCN(C)C)cc3)nc3ccc(F)cc3c21
Activity [1]: 5.3%
Activity (HepG2 [2]): 17.9%
Activity (HepG2 [3]): Active
Activity (HepG2 [4]): Active
Activity [5]: 21.8%
Activity [6]: 14.1%
Activity (HepG2 [7]): 4.9%
GI50 [8]: 390 nM
GI50 (A549): 550 nM
growth inhibition (GI) (Hep 3B2 [9]): Active
GI50 [10]: 670 nM
Activity (HepG2 [11]): 31.1%
Activity (HepG2 [12]): Active
GI50 (HepG2 [13]): 640 nM
Activity (HepG2 [14]): 12.4%
growth inhibition (GI) (Hep 3B2 [15]): tde
Activity (HepG2 [16]): 23.6%
growth inhibition (GI) (HepG2 [17]): tde
Activity (HepG2 [18]): Active
GI50 (MDA-MB-231): 650 nM
Activity [19]: 33.5%
Activity [20]: 58.9%
Activity [21]: 10.4%
Activity (HepG2 [22]): Active
growth inhibition (GI) (HepG2 [23]): Active
Activity (HepG2 [24]): 21.7%
Activity [25]: 15.2%
GI50 (MCF7): 6460 nM
Activity (HepG2 [26]): 29.1%
Activity (Hep 3B2 [27]): Active
Activity (HepG2 [28]): 31.3%
growth inhibition (GI) (Hep 3B2 [29]): Dose-dependent effect
Activity [30]: 37.2%
Activity [31]: 30.7%
growth inhibition (GI) (HepG2 [32]): Dose-dependent effect
Activity [33]: 17.4%
Activity (HepG2 [34]): 19.8%
Activity (HepG2 [35]): 38.1%
Activity [36]: 42.7%
Activity (HepG2 [37]): 56.5%
Activity (HepG2 [38]): 18.5%
Activity [39]: 18.1%
